In patent US20130245355A1, “3-HETARYL-SUBSTITUTED PYRROLO[2,3 B]PYRIDINE DERIVATIVES AS PDK1 INHIBITORS” (MERCK PATENT GMBH, priority 2010, published 2013):

What was measured:
PDK1 [1] = target: T1, PDK1 (Homo sapiens, UniProt O15530); assay: Test for the inhibition of PDK1 (flashplate, 33P-ATP); settings: His6-PDK1 (1-50) 3.4 nM, 4 μM ATP, 30° C., 60 min; read-out: IC50 [PDK1] biochemical
T1 construct: His6 (N)
T1 sequence (O15530 51-556 limits assumed): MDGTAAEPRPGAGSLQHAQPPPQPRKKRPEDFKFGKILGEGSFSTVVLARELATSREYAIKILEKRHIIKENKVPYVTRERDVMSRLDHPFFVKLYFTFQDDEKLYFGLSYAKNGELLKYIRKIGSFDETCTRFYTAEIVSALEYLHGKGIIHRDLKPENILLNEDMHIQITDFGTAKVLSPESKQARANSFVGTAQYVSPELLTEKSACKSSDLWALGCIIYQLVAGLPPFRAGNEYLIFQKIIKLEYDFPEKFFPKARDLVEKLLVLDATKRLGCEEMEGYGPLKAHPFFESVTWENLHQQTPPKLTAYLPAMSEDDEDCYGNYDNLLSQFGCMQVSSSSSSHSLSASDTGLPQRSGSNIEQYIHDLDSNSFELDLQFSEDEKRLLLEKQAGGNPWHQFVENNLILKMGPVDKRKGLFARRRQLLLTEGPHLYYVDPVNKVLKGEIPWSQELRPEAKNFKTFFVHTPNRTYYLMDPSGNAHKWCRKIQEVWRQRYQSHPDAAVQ
Procedure: The experimental batches are carried out in a flashplate system with 384 wells/microtitration plate.
In each case, the PDK1 sample His6-PDK1 (1-50) (3.4 nM), the PDK1 substrate biotin-bA-bA-[…] (400 nM), 4 μM ATP (with 0.2μ Ci of ^33P-ATP/well) and the test substance in 50 μl of conventional experimental solution per well are incubated at 30° C. for 60 min. The test substances are employed in corresponding concentrations (if desired in a dilution series). The control is carried out without test substance. The reaction is stopped using standard methods and washed. The activity of the kinase is measured via the incorporated radioactivity in top count. In order to determine the non-specific kinase reaction (blank value), the experimental batches are carried out in the presence of 100 nM staurosporin.
The radioactivity (decompositions per minute) of the blank value (no use of test substance in the presence of staurosporin) is subtracted from all other radioactivity values. The controls (kinase activity without test substance) are set equal to 100 percent and all other radioactivity values (after subtracting the blank value) are expressed set in relation thereto (for example in % of the control).
IC50 values (50% inhibition) are determined with the aid of statistics programmes, such as, for example, RS1.

PDK1 [2] = target: T2, PDK1 (Homo sapiens, UniProt O15530); assay: Cellular testing of PDK1 kinase inhibitors in PC3 cells (Luminex, phospho-T308-PKB); type: cell-based; settings: 30 min, serum-free
T2 construct: endogenous in cells; host or cells: PC3 cells
T2 sequence (O15530 1-556): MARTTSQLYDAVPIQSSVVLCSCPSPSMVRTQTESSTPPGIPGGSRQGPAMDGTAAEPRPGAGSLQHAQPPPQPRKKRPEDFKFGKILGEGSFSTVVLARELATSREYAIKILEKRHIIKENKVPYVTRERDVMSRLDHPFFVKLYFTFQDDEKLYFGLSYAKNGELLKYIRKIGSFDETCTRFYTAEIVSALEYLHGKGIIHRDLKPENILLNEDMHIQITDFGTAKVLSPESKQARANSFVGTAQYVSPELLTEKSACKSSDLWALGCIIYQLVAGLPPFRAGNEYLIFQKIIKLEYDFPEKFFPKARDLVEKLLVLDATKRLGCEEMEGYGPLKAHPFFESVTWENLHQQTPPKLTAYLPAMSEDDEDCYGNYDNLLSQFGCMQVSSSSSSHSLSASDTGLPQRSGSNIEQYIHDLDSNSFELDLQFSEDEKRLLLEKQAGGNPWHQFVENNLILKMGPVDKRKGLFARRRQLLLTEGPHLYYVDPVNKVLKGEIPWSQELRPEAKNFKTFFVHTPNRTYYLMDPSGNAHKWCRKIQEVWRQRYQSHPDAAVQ
Procedure: Method for the Cellular Testing of PDK1 Kinase Inhibitors in PC3 Cells.
The cellular assay for the determination of the PDK1 kinase activity is carried out as a Luminex assay in the 96-well format. PC3 cells are sown at 20,000 cells per well in 100 μl of medium (45% of […]/45% of Ham's F12/10% of FCS) and incubated on the following day for 30 min with a serial dilution of the test substance (7 concentrations) under serum-free conditions. The cells are subsequently lysed using 90 μl of lysis buffer (20 mM tris/HCl pH 8.0, 150 mM NaCl, 1% of NP40, 10% of glycerol, 1% of phosphatase inhibitor I, 1% of phosphatase inhibitor II, 0.1% of protease inhibitor cocktail III, 0.01% of benzonase) per well, and the lysates are separated off from insoluble cell constituents by means of centrifugation through a 96-well filter plate (0.65 μm). The lysates are incubated overnight at 4° C. with shaking with Luminex beads to which an anti-total PKB antibody is coupled. The detection is carried out on the following day by addition of a phospho-T308-PKB antibody and a species-specific […] secondary antibody. The detection of phospho T308-PKB is carried out by measurement in a Luminex100 instrument by determination of 100 events per cavity in a measurement time of 60 sec. As pharmacological blank, the signals obtained from cells which have been treated with 10 μM staurosporin are subtracted from all other batches. The control value used for maximum phosphorylation of PKB on T308 are the signals from cells which have only been treated with the solvent (0.3% of DMSO). The values of the batches treated with test substance are calculated therefrom as percentage of control, and IC50 values are determined by means of RS 1.

Row | SMILES | IC50 (PDK1 [1]) | IC50 (PDK1 [2])
1 | Cn1cc(-c2cnc3[nH]cc(-c4cc([C@](C)(O)c5cccc(F)c5)on4)c3c2)cn1 (single isomer, unassigned) [A63] | 0.5 to 1000 nM | 1000 to 10000 nM
2 | Cn1cc(-c2cnc3[nH]cc(-c4nnc([C@@H](O)c5ccccc5Cl)o4)c3c2)cn1 (single isomer, unassigned) [A130] | 0.5 to 1000 nM | 0.5 to 1000 nM
3 | Cn1cc(-c2cnc3[nH]cc(-c4cc(C(C)(O)c5ccccc5)on4)c3c2)cn1 (stereo not drawn) [A1, 1-{3-[5-(1-methyl-1H-pyrazol-4-yl)-1H-pyrrolo[2,3-b]pyridin-3-yl]isoxazol-5-yl}-1-phenylethanol] | 0.5 to 1000 nM | 0.5 to 1000 nM
4 | Cn1cc(-c2cnc3[nH]cc(-c4csc(Cc5ccccc5F)n4)c3c2)cn1 [A4] | 1000 to 10000 nM | 1000 to 10000 nM
5 | Cn1cc(-c2cnc3[nH]cc(-c4cc(C(C)(O)c5ccccc5F)on4)c3c2)cn1 (stereo not drawn) [A6] | 0.5 to 1000 nM | 0.5 to 1000 nM
6 | Cn1cc(-c2cnc3[nH]cc(-c4csc(Cc5cccc(F)c5F)n4)c3c2)cn1 [A9] | 1000 to 10000 nM | 1000 to 10000 nM
7 | CCC(O)(c1cccc(F)c1)c1cc(-c2c[nH]c3ncc(-c4cnn(C)c4)cc23)no1 (stereo not drawn) [A11] | 0.5 to 1000 nM | 0.5 to 1000 nM
8 | CC(O)(c1cc(-c2c[nH]c3ncc(-c4cnn(CC(=O)N5CCCCC5)c4)cc23)no1)c1ccccc1F (stereo not drawn) [A12] | 0.5 to 1000 nM | 0.5 to 1000 nM
9 | Cn1cc(-c2cnc3[nH]cc(-c4n[nH]c(Cc5cccc(F)c5)n4)c3c2)cn1 [A14, 3-[5-(3-fluorobenzyl)-1H-1,2,4-triazol-3-yl]-5-(1-methyl-1H-pyrazol-4-yl)-1H-pyrrolo[2,3-b]pyridine] | 0.5 to 1000 nM | 1000 to 10000 nM
10 | Cn1cc(-c2cnc3[nH]cc(-c4n[nH]c(Cc5ccccc5F)n4)c3c2)cn1 [A15] | 0.5 to 1000 nM | 1000 to 10000 nM
11 | Cn1cc(-c2cnc3[nH]cc(-c4n[nH]c(Cc5cccc(F)c5F)n4)c3c2)cn1 [A16] | 0.5 to 1000 nM | 0.5 to 1000 nM
12 | Cn1cc(-c2cnc3[nH]cc(-c4n[nH]c(Cc5ccccc5)n4)c3c2)cn1 [A17] | 0.5 to 1000 nM | 1000 to 10000 nM
13 | Cn1cc(-c2cnc3[nH]cc(-c4cc(C(C)(O)c5ccccc5F)[nH]n4)c3c2)cn1 (stereo not drawn) [A18] | 0.5 to 1000 nM | 1000 to 10000 nM
14 | Cn1cc(-c2cnc3[nH]cc(-c4nnc(Cc5cccc(F)c5)o4)c3c2)cn1 [A19, 3-[5-(3-fluorobenzyl)-1,3,4-oxadiazol-2-yl]-5-(1-methyl-1H-pyrazol-4-yl)-1H-pyrrolo[2,3-b]pyridine] | 0.5 to 1000 nM | 1000 to 10000 nM
15 | Cn1cc(-c2cnc3[nH]cc(-c4nnc(Cc5cccc(F)c5F)o4)c3c2)cn1 [A20] | 0.5 to 1000 nM | 1000 to 10000 nM
16 | Cn1cc(-c2cnc3[nH]cc(-c4nnc(Cc5ccccc5)o4)c3c2)cn1 [A21] | 0.5 to 1000 nM | 1000 to 10000 nM
17 | Cn1cc(-c2cnc3[nH]cc(-c4nnc(Cc5ccccc5F)o4)c3c2)cn1 [A22] | 0.5 to 1000 nM | 0.5 to 1000 nM

Row | SMILES | IC50 (PDK1 [1]) | IC50 (PDK1 [2])
18 | Cn1cc(-c2cnc3[nH]cc(-c4noc(C(O)c5ccccc5)n4)c3c2)cn1 (stereo not drawn) [A23] | 0.5 to 1000 nM | 1000 to 10000 nM
19 | CC(O)(c1cc(-c2c[nH]c3ncc(-c4cnn(CCO)c4)cc23)no1)c1ccccc1F (stereo not drawn) [A24] | 0.5 to 1000 nM | 0.5 to 1000 nM
20 | CCC(O)(c1cc(-c2c[nH]c3ncc(-c4cnn(C)c4)cc23)no1)c1ccccc1F (stereo not drawn) [A25] | 0.5 to 1000 nM | 0.5 to 1000 nM
21 | C=C(c1cc(-c2c[nH]c3ncc(-c4cnn(C)c4)cc23)n[nH]1)c1ccccc1F [A28] | 0.5 to 1000 nM | 1000 to 10000 nM
22 | Cn1cc(-c2cnc3[nH]cc(-c4nnc(C(O)c5ccccc5)o4)c3c2)cn1 (stereo not drawn) [A29] | 0.5 to 1000 nM | 1000 to 10000 nM
23 | Cn1cc(-c2cnc3[nH]cc(-c4noc(C(C)(O)c5ccccc5)n4)c3c2)cn1 (stereo not drawn) [A31] | 0.5 to 1000 nM | 0.5 to 1000 nM
24 | Cn1cc(-c2cnc3[nH]cc(-c4cc(C(C)(O)c5cccc(F)c5)on4)c3c2)cn1 (stereo not drawn) [A36] | 0.5 to 1000 nM | 0.5 to 1000 nM
25 | Cn1cc(-c2cnc3[nH]cc(-c4cc(C(C)(O)c5cccc(F)c5)[nH]n4)c3c2)cn1 (stereo not drawn) [A37, 1-(3-fluorophenyl)-1-{5-[5-(1-methyl-1H-pyrazol-4-yl)-1H-pyrrolo[2,3-b]pyridin-3-yl]-2H-pyrazol-3-yl}ethanol] | 0.5 to 1000 nM | 0.5 to 1000 nM
26 | Cn1cc(-c2cnc3[nH]cc(-c4n[nH]c(C(=O)c5ccccc5)n4)c3c2)cn1 [A39] | 1000 to 10000 nM | 1000 to 10000 nM
27 | Cn1cc(-c2cnc3[nH]cc(-c4n[nH]c(C(C)(O)c5ccccc5)n4)c3c2)cn1 (stereo not drawn) [A42, 1-{5-[5-(1-methyl-1H-pyrazol-4-yl)-1H-pyrrolo[2,3-b]pyridin-3-yl]-2H-1,2,4-triazol-3-yl}-1-phenylethanol] | 0.5 to 1000 nM | 1000 to 10000 nM
28 | Cn1cc(-c2cnc3[nH]cc(-c4nnc(C(O)c5ccccc5F)o4)c3c2)cn1 (stereo not drawn) [A43] | 0.5 to 1000 nM | 1000 to 10000 nM
29 | Cn1cc(-c2cnc3[nH]cc(-c4n[nH]c(C(C)(O)c5cccc(F)c5)n4)c3c2)cn1 (stereo not drawn) [A44] | 0.5 to 1000 nM | 1000 to 10000 nM
30 | Cn1cc(-c2cnc3[nH]cc(-c4nnc(C(C)(O)c5ccccc5)o4)c3c2)cn1 (stereo not drawn) [A45] | 0.5 to 1000 nM | 1000 to 10000 nM
31 | Cn1cc(-c2cnc3[nH]cc(-c4nnc(C(O)c5cccc(F)c5F)o4)c3c2)cn1 (stereo not drawn) [A46] | 0.5 to 1000 nM | 0.5 to 1000 nM
32 | Cn1cc(-c2cnc3[nH]cc(-c4nnc(C(O)c5cccc(F)c5)o4)c3c2)cn1 (stereo not drawn) [A47] | 0.5 to 1000 nM | 0.5 to 1000 nM
33 | Cn1cc(-c2cnc3[nH]cc(-c4nnc(C(C)(O)c5ccccc5F)o4)c3c2)cn1 (stereo not drawn) [A48] | 0.5 to 1000 nM | 0.5 to 1000 nM
